Results reported in publication PMC4467398, “Preclinical antitumor activity of ST7612AA1: a new oral thiol-based histone deacetylase (HDAC) inhibitor” (Oncotarget, 2014).
Where two headings read alike, the source gives them in different places.

Tests used:
[1] = tested on: Acute myeloid leukemia U937; assay: In vitro proliferation assay (sulphorodamine B); type: cell-based; conditions: Homo sapiens, U-937, 72 h, mean ± S.E.M.
[2] = PK sampling and analysis after a single oral dose of ST7612AA1 (plasma, LC-MS/MS); type: in vivo, CD1 mice; conditions: single oral dose of 120 mg/kg; limit of quantification 25 ng/mL
Description: CD1 nude mice were used. Male mice were treated with a single dose of ST7612AA1 at 120 mg/10 mL/kg p.o., using 5% Solutol HS 15 in water for injection as vehicle. Blood samples were collected at 0.25, 0.5, 1, 2, 4 and 6 h post treatment from 5 animals per time point. Levels of ST7612AA1 and ST7464AA1 were determined in plasma by quantitative LC-MS/MS having a limit of quantification of 25 ng/mL. The PK parameters Cmax (maximum plasma concentration), Tmax (time of maximum plasma concentration), Clast (last quantifiable concentration), Tlast (time of last quantifiable plasma concentration), AUClast (area under the concentration vs time curve from 0 to Tlast), AUCINF (area under the concentration vs time curve from 0 to infinity), T1/2 (terminal half-life), CL/F (apparent systemic clearance) and Vz/F (apparent terminal volume of distribution) were derived from the analyte plasma concentration vs time data according to a model independent approach for sparse data sampling by using Phoenix WinNonlin® ver. 6.3 software (Pharsight, Cetara).

HCT116 tumor xenografts = assay: Western blot of tumor xenografts after oral ST7612AA1; type: in vivo, nude mice; conditions: xenografts collected 24 h after the last oral administration; 80 mg/10 mL/kg qdx5/wx3w
Description: In order to assess the in vivo effect of ST7612AA1 on the acetylation degree of α-tubulin and histones, and on the expression of other key proteins, HCT116 tumor xenografts (3 samples/group) were excised at different times after the last treatment, and then total protein lysates were prepared through the homogenization of tumor samples in lysis buffer containing 0.5% NP-40, supplemented with 10 μg/mL of protease inhibitor cocktail (Sigma Chemical Co., St. Louis, MO, USA). Determination of the protein concentration and Western Blotting analysis were finally performed as above described for the in vitro experiments. The antibodies used are listed in Supplementary Table 2.

[3] = tested on: Acute myeloid leukemia MV4;11; assay: In vitro proliferation assay (sulphorodamine B); type: cell-based; conditions: Homo sapiens, 72 h, mean ± S.E.M.
Ovarian cancer A2780 = assay: In vitro proliferation assay (sulphorodamine B); type: cell-based; conditions: Homo sapiens, 72 h, mean ± S.E.M.
[4] = tested on: acetylation of histone H4 in NCI-H460 NSCLC cells; assay: Western blot with densitometry, histone H4 acetylation; type: cell-based, human; conditions: for Acetyl H4/H4: vehicle 0,0274
Description: (§1) For assessing the in vitro effect of ST7612AA1 on acetylation of α-tubulin and histones, NSCLC cells were treated with the test compound at various concentrations (dose-response curve). SAHA 5 μM was used as reference inhibitor. Protein extraction, separation and immunoblotting were performed as previously described. Immunoreactive bands were finally subjected to densitometry analysis by a phosphoimaging system (STORM, Molecular Dynamics), and then the IC50 values were calculated by the “ALLFIT” computer program. The antibodies used are listed in Supplementary Table 2.

mature B cell lymphomas = assay: In vitro proliferation assay, lymphoma panel (summary); type: cell-based; conditions: Homo sapiens, different mature B cell lymphomas
Description: (§2) Anti-proliferative activity was first assessed on a panel of cell lines derived from solid tumors and hematological cancers and then on a large panel of cell lines derived from mature B-cell lymphomas. […] Lymphoma cells were seeded in 96-wells tissue culture plates in complete medium and were exposed to increasing concentrations of ST7612AA1 for 48 or 72 h; the anti-proliferative activity was assessed using 3-(4,5-dimethylthiazol-2-yl)-2,5-diphenyltetrazolium bromide (MTT). The drug potency was evaluated by means of the “ALLFIT” computer program and defined as IC50 (drug concentration required for 50% inhibition of cell survival).

[5] = tested on: mantle cell lymphoma (MCL) cell lines; assay: as above; type: cell-based; conditions: Homo sapiens
Description: as §2

[6] = tested on: splenic marginal zone lymphoma (SMZL) cell lines; assay: as above; type: cell-based; conditions: Homo sapiens
Description: as §2

ABC-DLBCL cell lines = assay: as above; type: cell-based; conditions: Homo sapiens
Description: as §2

GCB-DLBCL cell lines = assay: as above; type: cell-based; conditions: Homo sapiens
Description: as §2

[7] = tested on: acetylation of alpha-tubulin in NCI-H460 NSCLC cells; assay: Western blot with densitometry, tubulin acetylation; type: cell-based, human; conditions: for Acetyl tub./tubulin: NCI-H460, vehicle 0,341
Description: as §1

Breast cancer MDA-MB231 = assay: In vitro proliferation assay (sulphorodamine B); type: cell-based; conditions: Homo sapiens, MDA-MB-231, 72 h, mean ± S.E.M.
Colon cancer HCT116 = assay: In vitro proliferation assay (sulphorodamine B); type: cell-based; conditions: Homo sapiens, HCT-116, 72 h, mean ± S.E.M.
lymphoma cell lines = assay: Detection of apoptotic cells (Annexin V-FITC, flow cytometry); type: cell-based, human; conditions: 250 nM, 72 hrs; eight lymphoma cell lines
Description: Apoptosis was assessed, on cells treated with DMSO or different doses of ST7612AA1, by Annexin V-FITC apoptosis detection kit (BD Biosciences), according to the manufacturer's recommendations, on a FACScan flow cytometer (BD Biosciences).

NSCLC NCI-H1975 = assay: In vitro proliferation assay (sulphorodamine B); type: cell-based; conditions: Homo sapiens, 72 h, mean ± S.E.M.
[8] = tested on: cell lines derived from epithelial cancers (lung, breast, colon, ovarian) and from leukemias and lymphomas; assay: In vitro proliferation assay, first broad panel (summary); type: cell-based; conditions: first broad panel of human tumor cell lines; read-out: IC50 values, range over the panel
Description: as §2

CC(=O)SCCCCC[C@H](NC(=O)[C@H]1CCC(=O)N1)C(=O)Nc1ccccc1 [ST7612AA1]
IC50 [1]: 49 nM | ST7612AA1 in plasma after oral administration [2]: not detected | HSP70 levels (HCT116 tumor xenografts): significant increase | HSP90 protein levels (HCT116 tumor xenografts): dramatic decrease | acetylated α-tubulin levels (HCT116 tumor xenografts): increased levels | pan H3 acetylation (HCT116 tumor xenografts): strong induction | IC50 [3]: 190 ± 20 nM | IC50 (Ovarian cancer A2780): 43 ± 10 nM | Acetyl H4/H4 ([4]; 0,2 µM, NCI-H460): 0,3352 | Acetyl H4/H4 ([4]; 0,04 µM, NCI-H460): 0,3092 | Acetyl H4/H4 ([4]; 1 µM, NCI-H460): 0,3757 | IC50 ([4]; Homo sapiens, NCI-H460, 3 h exposure, Western blot densitometry, read-out: IC50 for increasing the acetylation of histone H4): 4.8 nM | fold more potent in increasing acetylation of histone H4 than of tubulin ([4]; NCI-H460): 40 fold | IC50 (mature B cell lymphomas; read-out: IC50 range): 46 to 2660 nM | IC50 (mature B cell lymphomas; read-out: median IC50): 375 nM | IC50 ([5]; read-out: IC50 range): 248 to 553 nM | IC50 ([5]; read-out: median IC50): 433 nM | IC50 ([6]; read-out: IC50 range): 102 to 257 nM | IC50 ([6]; read-out: median IC50): 119 nM | IC50 (ABC-DLBCL cell lines; read-out: IC50 range): 101 to 805 nM | IC50 (ABC-DLBCL cell lines; read-out: median IC50): 257 nM | IC50 (GCB-DLBCL cell lines; read-out: IC50 range): 46 to 2660 nM | IC50 (GCB-DLBCL cell lines; read-out: median IC50): 597 nM | Acetyl tub./tubulin ([7]; 0,2 µM): 1,181 | Acetyl tub./tubulin ([7]; 0,04 µM): 0,649 | Acetyl tub./tubulin ([7]; 1 µM): 2,012 | Acetyl tub./tubulin ([7]; 0,008 µM): 0,588 | IC50 ([7]; Homo sapiens, NCI-H460, 3 h exposure, Western blot densitometry, read-out: IC50 for increasing the acetylation of tubulin): 200 nM | IC50 (Breast cancer MDA-MB231): 230 nM | IC50 (Colon cancer HCT116): 75 ± 10 nM | apoptosis (Annexin V positive cells) (lymphoma cell lines): moderate apoptosis in three out of eight lymphoma cell lines | IC50 (NSCLC NCI-H1975): 500 nM | IC50 [8]: 43 to 500 nM
